According to ChEMBL document CHEMBL3885881, “DrugMatrix”:

Species: Rattus norvegicus
Test: DrugMatrix - Regimen: Daily Repeat
Format: toxicity, organism-based, Sprague-Dawley
Design: regimen Daily Repeat, gender Male, age 6-8 weeks
Settings: in vivo, po, route oral GAVAGE, vehicle .5 % CMC; for BASOPHIL / EOSINOPHIL / ERYTHROCYTE COUNT / HEMATOCRIT / HEMOGLOBIN / LEUKOCYTE COUNT / LYMPHOCYTE / MEAN CORPUSCULAR HEMOGLOBIN / MEAN CORPUSCULAR HEMOGLOBIN CONCENTRATION / MEAN CORPUSCULAR VOLUME / MONOCYTE / NEUTROPHIL / PLATELET COUNT: tissue Blood; for ALANINE AMINOTRANSFERASE / ALBUMIN / ALKALINE PHOSPHATASE / ASPARTATE AMINOTRANSFERASE / BLOOD UREA NITROGEN / CHLORIDE / CHOLESTEROL / CREATINE PHOSPHOKINASE / CREATININE / GLUCOSE / PHOSPHORUS / POTASSIUM / SODIUM / TOTAL BILIRUBIN / TOTAL PROTEIN: tissue Plasma
[1] = 94 mg/kg, 120 h, dose level High, time 5 day
[2] = […], 72 h, dose 9.4 mg/Kg, dose level Low, time 3 day
[3] = […], 120 h, dose 9.4 mg/Kg, dose level Low, time 5 day

O=C(CCCN1CC=C(n2c(=O)[nH]c3ccccc32)CC1)c1ccc(F)cc1 [DROPERIDOL]
BASOPHIL [1]: 1.4%
EOSINOPHIL [1]: 0.5%
ERYTHROCYTE COUNT [1]: 8.34 x10E6/uL
HEMATOCRIT [1]: 50.33%
HEMOGLOBIN [1]: 16.1 G/DL
LEUKOCYTE COUNT [1]: 13.23 x10E3/uL
LYMPHOCYTE [1]: 84.5%
MEAN CORPUSCULAR HEMOGLOBIN [1]: 19.37 pg
MEAN CORPUSCULAR HEMOGLOBIN CONCENTRATION [1]: 32.03 G/DL
MEAN CORPUSCULAR VOLUME [1]: 60.43 fL
MONOCYTE [1]: 2.13%
NEUTROPHIL [1]: 10.53%
PLATELET COUNT [1]: 1440.33 x10E3/uL
ALANINE AMINOTRANSFERASE [1]: 53 u/L
ALBUMIN [1]: 3.87 G/DL
ALKALINE PHOSPHATASE [1]: 248 u/L
ASPARTATE AMINOTRANSFERASE [1]: 83 u/L
BLOOD UREA NITROGEN [1]: 23.33 mg/dL
CHLORIDE [1]: 103 MEQ/L
CHOLESTEROL [1]: 68 mg/dL
CREATINE PHOSPHOKINASE [1]: 108.67 u/L
CREATININE [1]: 0.67 mg/dL
GLUCOSE [1]: 160.67 mg/dL
PHOSPHORUS [1]: 12.3 mg/dL
POTASSIUM [1]: 7.17 MEQ/L
SODIUM [1]: 149 MEQ/L
TOTAL BILIRUBIN [1]: 0.67 mg/dL
TOTAL PROTEIN [1]: 6.93 G/DL
BASOPHIL [2]: 1.77%
EOSINOPHIL [2]: 0.47%
ERYTHROCYTE COUNT [2]: 7.08 x10E6/uL
HEMATOCRIT [2]: 45.83%
HEMOGLOBIN [2]: 14.3 G/DL
LEUKOCYTE COUNT [2]: 15.23 x10E3/uL
LYMPHOCYTE [2]: 83.7%
MEAN CORPUSCULAR HEMOGLOBIN [2]: 20.13 pg
MEAN CORPUSCULAR HEMOGLOBIN CONCENTRATION [2]: 31.1 G/DL
MEAN CORPUSCULAR VOLUME [2]: 64.77 fL
MONOCYTE [2]: 1.6%
NEUTROPHIL [2]: 11.93%
PLATELET COUNT [2]: 1499.67 x10E3/uL
ALANINE AMINOTRANSFERASE [2]: 36.67 u/L
ALBUMIN [2]: 3.67 G/DL
ALKALINE PHOSPHATASE [2]: 351.67 u/L
ASPARTATE AMINOTRANSFERASE [2]: 62.33 u/L
BLOOD UREA NITROGEN [2]: 14 mg/dL
CHLORIDE [2]: 103.67 MEQ/L
CHOLESTEROL [2]: 70.33 mg/dL
CREATINE PHOSPHOKINASE [2]: 125.33 u/L
CREATININE [2]: 0.6 mg/dL
GLUCOSE [2]: 162.33 mg/dL
PHOSPHORUS [2]: 12.83 mg/dL
POTASSIUM [2]: 7.2 MEQ/L
SODIUM [2]: 147.67 MEQ/L
TOTAL BILIRUBIN [2]: 0.5 mg/dL
TOTAL PROTEIN [2]: 6.57 G/DL
BASOPHIL [3]: 2.17%
EOSINOPHIL [3]: 0.4%
ERYTHROCYTE COUNT [3]: 6.89 x10E6/uL
HEMATOCRIT [3]: 44.3%
HEMOGLOBIN [3]: 14.03 G/DL
LEUKOCYTE COUNT [3]: 11 x10E3/uL
LYMPHOCYTE [3]: 83.27%
MEAN CORPUSCULAR HEMOGLOBIN [3]: 20.4 pg
MEAN CORPUSCULAR HEMOGLOBIN CONCENTRATION [3]: 31.7 G/DL
MEAN CORPUSCULAR VOLUME [3]: 64.43 fL
MONOCYTE [3]: 2.07%
NEUTROPHIL [3]: 11.2%
PLATELET COUNT [3]: 1298.67 x10E3/uL
ALANINE AMINOTRANSFERASE [3]: 37.67 u/L
ALBUMIN [3]: 3.63 G/DL
ALKALINE PHOSPHATASE [3]: 359 u/L
ASPARTATE AMINOTRANSFERASE [3]: 62.33 u/L
BLOOD UREA NITROGEN [3]: 13.33 mg/dL
CHLORIDE [3]: 101.33 MEQ/L
CHOLESTEROL [3]: 65 mg/dL
CREATINE PHOSPHOKINASE [3]: 109 u/L
CREATININE [3]: 0.5 mg/dL
GLUCOSE [3]: 191 mg/dL
PHOSPHORUS [3]: 12.2 mg/dL
POTASSIUM [3]: 7.17 MEQ/L
SODIUM [3]: 147.33 MEQ/L
TOTAL BILIRUBIN [3]: 0.3 mg/dL
TOTAL PROTEIN [3]: 6.4 G/DL
